Several values for one entry are separate records, joined by “and”; a condition that tells them apart may be missing. Identical values can stand only once.

Data on four substances can be found in patent US6262036A, “Method for inhibiting RNA translation using chimeric oligonucleoside compounds” (priority 2000, dated 2001).

The test system of series [1] is complementary synthetic RNA target. As to the kind of experiment: Binding affinities of chimeric backbone oligomers to RNA (Example 35). On the set-up: KA (37° C.): unit not given here. The conditions noted are these: for Tm: 1:1 molar ratio, 2.4 micromolar total strand, pH 7.2, 100 mM NaCl; for KA (37° C.): two-state model fit. How it is done: The following oligonucleotides were tested for their ability to hybridize to a complementary synthetic RNA target.
The bases shown in parentheses contain the backbone modification indicated in the middle set of brackets for each description, and likewise the terminal portions of the oligomers contain linkage structures as shown in the terminal sets of brackets. The PS/DE notation indicates an alternating array of bases beginning with a phosphorothioate linkage. For example, if there are five bases in a sequence denoted as PS/DE, they include three phosphorothioate (PS) bonds and two phosphodiester (DE) bonds.
Each oligomer was mixed with its complementary synthetic RNA target in a 1:1 molar ratio in a buffer system consisting of 20 mM sodium phosphate buffer (pH 7.2), 100 mM NaCl, 0.03% potassium sarkosylate and 0.1 mM EDTA; total strand concentration=2.4 micromolar. The resulting solutions were heated to 70° C. and slowly cooled to 4° C. over a time period of approximately 4-6 hours. […] The binding constants at 37° C.

The next series relates to S1-endonuclease. The experiment in a line: Stability to nuclease digestion by S1-endonuclease (Example 37). The class given is in vitro ADME. The conditions noted are these: S1-endonuclease 0.5 units/mL, pH 5.0, 37° C.; 50% full length oligomer digested. How it is done:
The following oligomers were tested for nuclease stability in the presence of S1-endonuclease.
S1-endonuclease was purchased from Promega Corp. (Catalog #E576B, Madison, Wis.). Aliquots of each chimeric oligomer (0.05-0.075 OD260 units) were individually added to polypropylene microcentrifuge tubes containing S1-endonuclease (0.5 units/mL) in 30 mM sodium acetate (pH 5.0), 50 mM NaCl, 1.0 mM zinc acetate and 5% glycerol; total reaction volume=10 μL. These tubes were incubated at 37° C. for specified time periods, quickly frozen in dry ice and then stored in a freezer at -20° C. […] Column=Vydac Protein C4 (catalog #214TP54, 4.9 mm i.d.×250 mm long). Buffer A=50 mM triethylammonium acetate (pH 7)/1% acetonitrile; Buffer B=50 mM triethylammonium acetate (pH 7)/50% acetonitrile. […] The samples were diluted with water (50 μL) and injected onto the column using a 100 μL sample loop. Peaks corresponding to full length oligomer and its degradation products were detected by monitoring at 260 nm. The amount of degradation occurring in each reaction was determined by measuring the reduction in peak area for the full-length oligomer (identified by comparison to an external control and/or by coinjecting undigested oligomer as an internal control). The data is shown in tabular format below, and in graphic format in FIG. 1.

Series [2] has as its system target mRNA. As to the kind of experiment: Cleavage of target mRNA in the presence of RNAseH (Example 40). The class given is biochemical. The conditions noted are these: for % of target mRNA cleavage: 30 minutes, estimated by visual inspection of the gel; for specificity of target mRNA cleavage: denaturing gel. How it is done:
A target mRNA having complementarity to these oligomers at the initiation codon region was prepared by standard cloning techniques with transcription using a T7 polymerase cell-free assay (Promega MEGAscript kit for uncapped RNA), according to the manufacturer's protocol. The resulting mRNA transcript is approximately 340 nt in length.
The ability to cleave this target mRNA, in the presence of RNAseH and either of oligomers 2567-1 {[MP]-[DE]-[MP]} and 3169-1 {[MP(Rp)/DE]-[DE]-[MP(Rp)/DE]} was determined as follows.
Cell-free transcribed mRNA (100 nM) was incubated at 37° C., in a cell-free translation buffer (containing 3.5 mM MgCl2, 25 mM KCl, 70 mM NaCl and 20 mM potassium acetate), in the presence of 0.04 units/μl of RNAseH (Promega) and either of oligomers 2567-1 or 3169-1 at 0, 0.01, 0.1, 1, or 10 μM. After 30 minutes, the RNA was extracted, denatured and run in a denaturing gel. After the run, the RNA was stained with ethidium bromide and its integrity was determined by visual observation of the RNA bands present in the gel.

A further series relates to control CAT mRNA. As to the kind of experiment: Cell-free translation of control CAT mRNA in rabbit reticulocyte lysates (Example 39). The class given is biochemical. The conditions noted are these: 0.2 or 1 μM. How it is done:
(§1) A target mRNA having complementarity to these oligomers at the initiation codon region was prepared by standard cloning techniques with […] catalyzed by T7 polymerase (Promega MEGAscript kit for uncapped RNA), according to the manufacturer's protocol. Control CAT mRNA was obtained from GIBCO as a control for specificity.
Target mRNA and control CAT mRNA were translated in a cell-free translation assay in rabbit reticulocyte lysates (Promega), in the presence of ^35 [S]-Cys (NEN/DuPont) following the manufacturer's directions. Oligos 2567-1 and 3169-1 were added to individual translation reactions at […], final concentrations. RNAse-H (Promega Corp.) was added to all the translation reactions at 0.04 units/ul. Each condition was run in triplicate. […] At the end of the translation reactions, proteins were denatured with Laemmli Sample Buffer (Novex) and the amounts of target proteins synthesized in each case were evaluated after immunoprecipitation with an hyperimmune antibody serum followed by gel fractionation of the protein products (10-20% gradient SDS-PAGE gels, Novex) and phosphoimage analysis. The amount of control CAT protein synthesized in each case was evaluated after gel fractionation of one aliquot of the denatured translation reaction (10-20% gradient SDS-PAGE gels, Novex) and phosphoimage analysis.

Series [3] relates to target mRNA. The experiment in a line: Cell-free translation of target mRNA in rabbit reticulocyte lysates (Example 39). The format is biochemical. As to the method: as §1
Target mRNA and control CAT mRNA were translated in a cell-free translation assay in rabbit reticulocyte lysates (Promega), in the presence of ^35 [S]-Cys (NEN/DuPont) following the manufacturer's directions. Oligos 2567-1 and 3169-1 were added to individual translation reactions at […], final concentrations. RNAse-H (Promega Corp.) was added to all the translation reactions at 0.04 units/ul. Each condition was run in triplicate. Translation reactions were incubated at 37° C. for 1 hour. At the end of the translation reactions, proteins were denatured with Laemmli Sample Buffer (Novex) and the amounts of target proteins synthesized in each case were evaluated after immunoprecipitation with an hyperimmune antibody serum followed by gel fractionation of the protein products (10-20% gradient SDS-PAGE gels, Novex) and phosphoimage analysis. The amount of control CAT protein synthesized in each case was evaluated after gel fractionation of one aliquot of the denatured translation reaction (10-20% gradient SDS-PAGE gels, Novex) and phosphoimage analysis.

Series [4] can be described thus: Stability to nuclease digestion in 10% fetal calf serum (Example 38). The format is in vitro ADME. The conditions noted are these: pH 8.0, 37° C., 50% full length oligomer digested, first three time points. How it is done: Multiple samples of each chimeric oligomer were prepared in 1.5 mL polypropylene microcentrifuge tubes on ice. Each sample contained oligomer (0.1 OD260 unit), 10% fetal calf serum (FCS, Gemini Bioproducts, Calabasas, Calif.), 20 mM HEPES (pH 8.0), 0.2% paramethylsulfonyl fluoride (PMSF), 175 mM KCl, 0.1 mM dithiothreitol, 0.1 mM EDTA, 2 mM MgCl2 and 4% glycerol--total volume=100 μL. The samples were incubated at 37° C. for specified time periods and then diluted with 0.4% NP-40/acetonitrile (35 μL), quickly frozen on dry ice and stored at -20° C. Samples were then individually thawed, diluted with water (635 μL) and analyzed immediately by reversed-phase HPLC according to the method given in the preceding example (except that a 2 mL sample loop was used to load the samples onto the column). Results are shown in tabular format below, and in graphical format in FIG. 2.

The test system of series [5] is endogenous eukaryotic RNaseH derived from HeLa cell nuclear extracts. The format is biochemical. The conditions noted are these: 10 μM oligomer, 1 μM RNA target.
The next series has as its system pG1036 (wild-type CAT). The experiment in a line: Inhibition of CAT expression, non-splicing control pG1036 (wild-type CAT), in COS-7 cells. The format is cell-based, African Green Monkey. The conditions noted are these: 1.0 μM oligomer; ± std error; normalized to protein and luciferase. How it is done: (§2) COS-7 cells were transiently transfected with plasmids encoding either a target reporter gene or a control non-target reporter gene. These cells were then treated with various chimeric antisense or control oligomers and then assayed for the expression of the reporter genes.
pG1036: Wild-type CAT, inserted into a pRc/CMV vector
COS 7 cells were plated at 1.5×10^5 cells/well in a 12 well plate format on the day before transfections began. All cultures were maintained at 37° C. On the next day, the transfection mixes were prepared. […] These quantities gave a 6.9 or 4.5 or 2.0 to 1 cationic lipid to oligomer plus DNA ratio, respectively, in one milliliter total. pGL2 and pSVβ served as transfection and oligomer specificity controls. […]
(§3) The cell lysates were then assayed for CAT, and luciferase or […] activity, and the total protein concentration was determined as described below. […]
(§4) […] of reaction mixture was then added to each tube, which was then incubated for, typically, approximately 1 hour in a 37° C. oven. […] The sample was then counted in a Packard scintillation counter.
(§5) This assay was performed generally as follows according to standard procedures. 20 μof lysate was combined with 100 μl of luciferase assay reagent (Promega) and counted in a scintillation counter (Packard) within 20 seconds (as recommended by Promega). […]

The subject of another series is pG1035 (SplicerCAT). The experiment in a line: Inhibition of CAT expression, splicing target pG1035 (SplicerCAT), in COS-7 cells. The format is cell-based, African Green Monkey. The conditions noted are these: 1.0 μM oligomer; ± std error; normalized to protein and luciferase; chimeric oligomers also normalized to pG1036. As to the method: as §2
pG1035: Splicer CAT, inserted into a pRc/CMV vector
COS 7 cells were plated at 1.5×10^5 cells/well in a 12 well plate format on the day before transfections began. All cultures were maintained at 37° C. On the next day, the transfection mixes were prepared. For each well of a 12 well plate, 1.0 μM oligomer was combined with 1 μg pGL2 or pSVβ+1 μg of the target CAT plasmid in 0.5 ml of Optimem (Gibco/BRL) and 18.75 μg Transfectam (for chimeric oligomers, Promega) or Lipofectamine (for all PS oligomers, Promega) also in 0.5 ml of Optimem. These quantities gave a 6.9 or 4.5 or 2.0 to 1 cationic lipid to oligomer plus DNA ratio, respectively, in one milliliter total. pGL2 and pSVβ served as transfection and oligomer specificity controls. […]
as §3, §4, §5
Six μl of lysate per well was added, followed by 300 μl Coomassie Protein Assay Reagent (Pierce) per well. The individual sample plates were then read at A570 on a microplate reader (Molecular Devices). […]
Oligomers were transfected into COS-7 cells and lysates were made and assayed as described previously. […] N.D.=not determined. […]

As to “2567-1: 5'-GTCTTCCA(TGCAT)GTTGTCC-3' [MP][DE][MP] [Oligomer 2567-1]”, the Tm in [1] is 45.6 °C. Also, the “KA (37° C.)” value in series [1] is recorded as 2.9 × 10^7. The “Half-Life for Degradation” value turned out to be 1.7 h with S1-endonuclease and 5.8 h in series [4]. The “% of target mRNA cleavage” value is 2% in the series with target mRNA [2] (0.01 μM); 15% with target mRNA [2] (0.1 μM); ~ 50% and 50% in the series with target mRNA [2] (1 μM); 80% in the series on target mRNA [2] (10 μM). For the same substance, in the series on target mRNA [2], the “specificity of target mRNA cleavage” value was “good specificity, cleaving the target mRNA in one position”. Besides, the “inhibition of control CAT mRNA translation” value in the series on control CAT mRNA was “little inhibition”. In addition, the entries for the “inhibition of target mRNA translation” value with target mRNA [3] (0.2 μM) and in the series on target mRNA [3] (1 μM) were “approximately 0%” and “approximately 50%”, respectively.

Regarding “3169-1: 5'-GTCTTCCA(TGCAT)GTTGTCC-3' [MP(Rp)/DE][DE][MP(Rp)/DE] [Oligomer 3169-1]”, in [5], the “RNaseH Cleavage after 2 Hrs. at 37° C.” value was determined as 52.0%. Also, the Tm in [1] was 62.6 °C. Besides, the “KA (37° C.)” value in series [1] is listed as 6.0 × 10^14. In addition, the “Half-Life for Degradation” value with S1-endonuclease turned out to be 0.9 h; in series [4], 3.4 h. Besides, the “% of target mRNA cleavage” value is 5% with target mRNA [2] (0.01 μM); 40% in the series on target mRNA [2] (0.1 μM); ~ 98% and 98% with target mRNA [2] (1 μM); 100% in the series with target mRNA [2] (10 μM). The “specificity of target mRNA cleavage” value in the series with target mRNA [2] was “good specificity, cleaving the target mRNA in one position”. In the series on control CAT mRNA, the “inhibition of control CAT mRNA translation” value was “little inhibition”. The results for the “inhibition of target mRNA translation” value in the series with target mRNA [3] (0.2 μM) and in the series with target mRNA [3] (1 μM) were “approximately 50%” and about 90%, respectively.

Turning to “XV-5: 24mer, all phosphorothioate: 5' cac tca cct tta ggg aaa tag gcc 3' (CACTCACCTTTAGGGAAATAGGCC; all phosphorothioate, sugars by position and methylation of C not given here)”, the “percent inhibition of CAT expression, pG1036 = non-splicing” value with pG1036 (wild-type CAT) came to 35 ± 1%. In addition, the “percent inhibition of CAT expression, pG1035 = splicing” value in the series with pG1035 (SplicerCAT) stood at 32 ± 1%.

Regarding “XV-6: 24mer, all phosphorothioate: 5' cac tca atc aat gac tag tct gca 3' (CACTCAATCAATGACTAGTCTGCA; all phosphorothioate, sugars by position and methylation of C not given here)”, the “percent inhibition of CAT expression, pG1036 = non-splicing” value in the series with pG1036 (wild-type CAT) was determined as 30 ± 4%. For the same substance, the “percent inhibition of CAT expression, pG1035 = splicing” value in the series with pG1035 (SplicerCAT) is given as 23 ± 15%.
